Laboratory results reported in ChEMBL document CHEMBL1150819, “Microxine, a new cdc2 kinase inhibitor from the Australian marine sponge Microxina species” (J Nat Prod, 2001).
pIC50: −log10 of the molar value. Active and inactive are the calls of the source. The calls are words filed in the database; no cut-off is given here.

Tests used:
[1] = molecular target: Cyclin-dependent kinase 1 (Homo sapiens, UniProt P06493)
P388 = assay: Cytotoxicity against mouse P388 cells at 18 uM; assay type: functional, cell-based
[2] = molecular target: T1, M-phase inducer phosphatase 1 (Homo sapiens) (UniProt P30304); assay: Inhibition of Cdc25a up to 10 uM
T1 sequence (whole entry): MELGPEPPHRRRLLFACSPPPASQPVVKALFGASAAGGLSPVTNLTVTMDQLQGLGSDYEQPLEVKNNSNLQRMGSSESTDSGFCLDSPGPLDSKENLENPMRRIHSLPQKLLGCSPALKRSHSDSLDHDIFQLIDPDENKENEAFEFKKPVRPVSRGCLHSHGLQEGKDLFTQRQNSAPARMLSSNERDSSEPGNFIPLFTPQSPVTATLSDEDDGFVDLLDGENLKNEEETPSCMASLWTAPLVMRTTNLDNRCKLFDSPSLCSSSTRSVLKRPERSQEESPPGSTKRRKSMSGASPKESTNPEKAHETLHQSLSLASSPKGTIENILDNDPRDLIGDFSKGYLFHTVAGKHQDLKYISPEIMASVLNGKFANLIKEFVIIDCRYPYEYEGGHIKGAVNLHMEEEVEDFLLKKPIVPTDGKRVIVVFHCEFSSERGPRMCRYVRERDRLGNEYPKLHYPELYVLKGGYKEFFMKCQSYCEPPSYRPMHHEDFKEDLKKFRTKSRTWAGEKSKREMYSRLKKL

A549 = assay: Cytotoxicity against human A549 cells at 18 uM; assay type: functional, cell-based

Sequence of Cyclin-dependent kinase 1 (P06493 whole entry): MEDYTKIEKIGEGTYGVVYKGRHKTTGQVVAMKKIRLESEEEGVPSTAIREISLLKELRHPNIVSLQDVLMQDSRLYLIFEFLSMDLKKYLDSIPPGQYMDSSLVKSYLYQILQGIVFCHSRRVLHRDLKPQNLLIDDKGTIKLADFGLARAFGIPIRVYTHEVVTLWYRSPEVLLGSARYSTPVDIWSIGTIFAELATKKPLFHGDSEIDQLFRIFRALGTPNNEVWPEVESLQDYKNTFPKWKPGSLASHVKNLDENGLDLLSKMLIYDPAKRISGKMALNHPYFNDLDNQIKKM

pIC50 [1]: 4.89
Activity [2]: inactive
SMILES: Cn1c(=O)[nH]c2ncnc(NCCS(=O)(=O)O)c21 [MICROXINE]
Activity (P388): inactive
Activity (A549): inactive
